Measured values from the PolyMetriX glass transition set.
± gives the standard deviation of the reports.

Row | SMILES | glass transition temperature
1 | *Oc1ccc(Sc2ccc(Oc3ccc(-c4ccc(-c5ccc(-c6ccc(*)c(C(F)(F)F)c6)cc5)cc4)cc3C(F)(F)F)cc2)cc1 (repeat unit) | 176.50 °C
2 | *c1ccc(Cc2ccc(N(c3ccc(C)cc3)c3ccc(-c4ccc(N(*)c5ccc(C)cc5)cc4)cc3)cc2)cc1 (repeat unit) | 183.00 °C
3 | *c1ccc2oc(C3CCC(c4nc5cc(C(*)(C(F)(F)F)C(F)(F)F)ccc5o4)CC3)nc2c1 (repeat unit) | 271.00 °C
4 | *C(=O)c1ccc(Oc2ccc(Oc3ccc(C(=O)c4ccc5c(c4)C(=O)N(c4ccc(Cc6ccc(N7C(=O)c8ccc(*)cc8C7=O)cc6)cc4)C5=O)cc3)cc2)cc1 (repeat unit) | 225.00 °C
5 | *c1ccc(C(C)(C)c2ccc(C(C)(C)c3ccc(N4C(=O)c5ccc(Oc6ccc7cc(Oc8ccc9c(c8)C(=O)N(*)C9=O)ccc7c6)cc5C4=O)cc3)cc2)cc1 (repeat unit) | 246.00 °C
6 | *CC(*)c1ccc(OCCC)cc1 (repeat unit) [Poly(p-n-propoxy styrene)] | 70 ± 3.5 °C
7 | *C/C=C/C[Si](*)(C)C (repeat unit) | -57.50 °C
8 | *Oc1cc(CCCC)cc(OC(=O)c2cccc(C(*)=O)c2)c1 (repeat unit) | 97.50 °C
9 | *Nc1ccc(Cc2ccc(NC(=O)c3cc(NC(=O)CCCN4C(=O)c5ccccc5C4=O)cc(C(*)=O)c3)cc2)cc1 (repeat unit) | 220.00 °C
10 | *C(=O)OCCOC(=O)c1ccc(C(=O)OCCOC(=O)N2CCN(*)CC2)cc1 (repeat unit) | 53.00 °C
11 | *Oc1ccc(S(=O)(=O)c2ccc(Oc3ccc(C(c4ccc(*)cc4)(C(F)(F)F)C(F)(F)F)cc3)cc2[Si](C)(C)C)c([Si](C)(C)C)c1 (repeat unit) | 172.00 °C
12 | *Oc1ccc(Oc2ccc(C(=O)c3ccc(P(=O)(c4ccccc4)c4ccc(C(=O)c5ccc(*)cc5)cc4)cc3)cc2)cc1 (repeat unit) | 207.00 °C
13 | *O[Si](C)(CCC(F)(F)F)CCC(F)(F)CC[Si](*)(C)CCC(F)(F)F (repeat unit) | -38.00 °C
14 | *c1c(C)cc(C(c2cccc(C(F)(F)F)c2)c2cc(C)c(N3C(=O)c4ccc(Oc5ccc6c(c5)C(=O)N(*)C6=O)cc4C3=O)c(C)c2)cc1C (repeat unit) | 264.10 °C
15 | *Oc1ccc(C(C)(C)c2ccc(OC(=O)c3ccc([Si](C)(C)c4ccc(C(*)=O)cc4)cc3)cc2)cc1 (repeat unit) | 180.00 °C
16 | *c1ccc(Oc2ccc(Oc3ccc(NC(=O)c4ccc(Oc5ccc6c(c5)C(=O)N(*)C6=O)cc4)cc3)cc2)cc1 (repeat unit) | 242.00 °C
17 | *Nc1ccc(Cc2ccc(NC(=O)NCCCCCCCCCCNC(*)=O)cc2)cc1 (repeat unit) | 46.00 °C
18 | *CC(*)OC(=O)C(F)(F)C(F)(F)C(F)(F)C(F)(F)C(F)(F)F (repeat unit) | -9.00 °C
19 | *OC(F)(F)C(F)(F)C(F)(F)C(*)(F)F (repeat unit) | -55.00 °C
20 | *CCc1cc(Cl)c(*)c(Cl)c1 (repeat unit) | 110.00 °C
21 | *CC(*)(C)C(=O)OCC1CCC1 (repeat unit) | 114.00 °C
22 | *CC(*)(C)C(=O)OCCC#N (repeat unit) | 91.00 °C
23 | *c1ccc(Oc2ccc(N3C(=O)c4ccc(C(c5ccc6c(c5)C(=O)N(c5ncc(*)s5)C6=O)(C(F)(F)F)C(F)(F)F)cc4C3=O)cc2)cc1 (repeat unit) | 268.20 °C

Row | SMILES | glass transition temperature
24 | *c1ccc(Oc2ccc(C(=O)c3ccc(Oc4ccc(C5(*)c6ccccc6C(=O)N5C)cc4)cc3)cc2)cc1 (repeat unit) | 245.00 °C
25 | *C(=O)Nc1cccc(NC(=O)c2ccc3c(c2)C(=O)N(c2cc(-c4nc5ccccc5o4)cc(N4C(=O)c5ccc(*)cc5C4=O)c2)C3=O)n1 (repeat unit) | 365.00 °C
26 | *C(=O)Nc1ccc(Cc2ccc(NC(=O)c3ccc4c(c3)C(=O)N(c3ccc(S(=O)(=O)c5ccc(N6C(=O)c7ccc(*)cc7C6=O)cc5)cc3)C4=O)cc2)cc1 (repeat unit) | 324.00 °C
27 | *CCCCCC(=O)Oc1ccc(-c2ccc(OC(=O)c3ccc4c(c3)C(=O)N(*)C4=O)cc2)cc1 (repeat unit) | 118.00 °C
28 | *CC(C)(C)S* (repeat unit) | -14.00 °C
29 | *O[Si](*)(C)CCCCCCCCCCCOc1ccc(/C=C/c2ccc(C#N)cc2)cc1 (repeat unit) | -55.00 °C
30 | *C1C(=O)N(c2ccccc2C(=O)OCCCC)C(=O)C1* (repeat unit) | 181.00 °C
31 | *Oc1ccc(C2(c3ccc(OC(=O)c4ccc(C(*)=O)cc4)cc3)c3ccccc3-c3ccccc32)cc1 (repeat unit) | 285.00 °C
32 | *Oc1ccc(OC(=O)c2ccc(C(*)=O)cc2)cc1CCC(C)CC (repeat unit) | 237.00 °C
33 | *C(=O)Nc1ccc(S(=O)(=O)c2ccc(NC(=O)c3ccc4c(c3)C(=O)N(c3ccc(Oc5ccc(N6C(=O)c7ccc(*)cc7C6=O)cc5)cc3)C4=O)cc2)cc1 (repeat unit) | 275.00 °C
34 | *Oc1ccc(C2(c3ccc(OC(=O)c4ccc(C(*)=O)cc4)cc3)CC3CC2C2CCCC32)cc1 (repeat unit) | 322.00 °C
35 | *CC(*)C(=O)OCCOc1ccc(C(=O)Oc2ccc(OC(=O)c3ccc(OCCCCC)cc3)cc2)cc1 (repeat unit) | 46.00 °C
36 | *CNC(=O)CCCCCCCCC(=O)NCC1COC(*)CO1 (repeat unit) | 73.00 °C
37 | *C(F)(F)C1(F)C(F)(F)C(*)(F)C(F)(F)C(F)(Cl)C1(F)F (repeat unit) | 147.00 °C
38 | *CC(=O)NCCCCCCNC(=O)CS* (repeat unit) | -7.00 °C
39 | *CCCCCCCCCCCCN1C(=O)c2ccc(-c3ccc(-c4ccc5c(c4)C(=O)N(*)C5=O)cc3)cc2C1=O (repeat unit) | 86.00 °C
40 | *Oc1ccc(Oc2ccc(NC(=C(C#N)C#N)c3ccc(C(Nc4ccc(*)cc4)=C(C#N)C#N)cc3)cc2)cc1 (repeat unit) | 255.00 °C
41 | *CCCCCCN(C)C(=O)CCCC(=O)N(*)C (repeat unit) | 3.00 °C
42 | *COC(=O)Nc1ccc(Cc2ccc(NC(=O)OCc3ccc(*)o3)cc2)cc1 (repeat unit) | 81.00 °C
43 | *C(=O)c1cc(C(=O)c2ccc3c(c2)C(=O)N(c2cccc(N4C(=O)c5ccc(*)cc5C4=O)c2)C3=O)cc(C(C)(C)C)c1 (repeat unit) | 264.50 °C
44 | *C(=O)c1ccc2c(c1)C(=O)N(c1cc(C(=O)O)cc(N3C(=O)c4ccc(*)cc4C3=O)c1)C2=O (repeat unit) | 314.00 °C
45 | *c1ccc(Oc2ccc(-c3ccc(-c4ccc(Oc5ccc(-c6c7c(c(*)c8ccccc68)C(=O)N(c6ccccc6)C7=O)cc5)c(C(F)(F)F)c4)s3)cc2C(F)(F)F)cc1 (repeat unit) | 287.00 °C
46 | *c1cccc(Oc2cccc(Oc3cccc(Oc4cccc(Oc5cccc(N6C(=O)c7ccc(Oc8ccc9c(c8)C(=O)N(*)C9=O)cc7C6=O)c5)c4C#N)c3)c2C#N)c1 (repeat unit) | 176.00 °C

Row | SMILES | glass transition temperature
47 | *OC(=O)CCCCCCCCC(*)=O (repeat unit) | 60.00 °C
48 | *CCCCCC(=O)N* (repeat unit) [Poly(6-aminohexanoic acid)] | 55.73 ± 5.6 °C
49 | *CCN(*)C(=O)C12CC3CC(CC(C3)C1)C2 (repeat unit) | 123.00 °C
50 | *C1CCCCC1S(*)(=O)=O (repeat unit) | 77.00 °C
51 | *CCC[Si](*)(C)c1ccccc1 (repeat unit) | -1.50 °C
52 | *Oc1ccc(C2(c3ccc(OC(*)=O)cc3)CC3CC2C2C4CCC(C4)C32)cc1 (repeat unit) | 267.50 °C
53 | *Oc1ccc(CC(NC(=O)CCc2ccc(OC(=O)CCCCCCCCC(*)=O)cc2)C(=O)OCCCC)cc1 (repeat unit) | 30.00 °C
54 | *c1ccc(Oc2ccc(C(=O)c3ccc4cc(C(=O)c5ccc(Oc6ccc(-c7nc(-c8ccc(-c9nc(*)c(-c%10ccccc%10)[nH]9)cc8)[nH]c7-c7ccccc7)cc6)cc5)ccc4c3)cc2)cc1 (repeat unit) | 281.00 °C
55 | *CC(*)C(=O)c1ccc(CC)cc1 (repeat unit) | 49.2 °C
56 | *C1C(=O)N(c2cc(Br)c(O[Si](C)(C)C(C)(C)C)c(Br)c2)C(=O)C1* (repeat unit) | 164.00 °C
57 | *CC(*)(C)C(=O)OCc1ccco1 (repeat unit) | 111.00 °C
58 | *c1ccc(Oc2cc3ccccc3cc2Oc2ccc(N3C(=O)c4ccc(Oc5cc6ccccc6cc5Oc5ccc6c(c5)C(=O)N(*)C6=O)cc4C3=O)cc2)cc1 (repeat unit) | 222.00 °C
59 | *Oc1c(C)cc(*)cc1C(C)CCCC (repeat unit) | 85.00 °C
60 | *C#Cc1cccc(C#C[Si](*)(C)C)c1 (repeat unit) | 50.00 °C
61 | *CC(*)(C)C(=O)Oc1ccc(C(=O)OC)cc1 (repeat unit) | 109.00 °C
62 | *OS(=O)(=O)c1cc(S(=O)(=O)Oc2ccc(C3(c4ccc(*)cc4)CCCC3)cc2)ccc1C (repeat unit) | 134.00 °C
63 | *c1ccc2c(c1)C(=O)N(c1cccc(C(F)(F)C(F)(F)C(F)(F)C(F)(F)C(F)(F)c3cccc(N4C(=O)c5ccc(C(F)(F)C(F)(F)C(F)(F)C(F)(F)C(F)(F)C(F)(F)C(*)(F)F)cc5C4=O)c3)c1)C2=O (repeat unit) | 108.50 °C
64 | *CCCCCCCCCCN1C(=O)c2ccc(Oc3ccc4c(c3)C(=O)N(*)C4=O)cc2C1=O (repeat unit) | 91.50 °C
65 | *Oc1ccc(CC(NC(=O)CCc2ccc(OC(=O)CCCCCCC(*)=O)cc2)C(=O)OCC)cc1 (repeat unit) | 50.00 °C
66 | *CC(*)c1ccc(-c2ccccc2)cc1 (repeat unit) [Poly(p-phenyl styrene) ] | 138 ± 14 °C
67 | */C=C/C(C)C(*)C(=O)OCCCN(C)c1ccc(N(C)C)cc1 (repeat unit) | 11.50 °C
68 | *CC(*)C(=O)Oc1ccc(C(=O)OCC)cc1 (repeat unit) | 37.00 °C
